# Measured values as given in patent US10519423B1, “High efficiency reprogramming of fibroblasts into cardiomyocytes” (The Regents of the University of Colorado, a body corporate, priority 2015, dated 2019).
# Legend:
# Type in all cases: cell-based, mouse
# [1] = test system: MEFs; assay: qPCR of cardiac genes in reprogramming MEFs; conditions: reprogramming MEFs treated with A83-01 for 5 days, day 7
# Protocol: (§1) Cells were harvested in TRizol reagent (Ambion) for RNA isolation. RNA was extracted with the RNeasy® Plus Universal Mini Kit (Qiagen). RT-PCR was performed using the Superscript III first-strand synthesis system (Invitrogen). qPCR was performed using the SYBR® Green PCR master mix (Applied Biosystems) or StepOne™ Real-Time PCR Systems (Applied Biosystems). Primers are listed in Supplementary Table 1. Ryr2 (Mm00465877_m1) and Myh7 (Mm01319006_91) are Taqman probes (Life technologies).
# [2] = test system: adult cardiac fibroblasts (ACFs); assay: Immunocytochemistry for cTnT and α-actinin in adult cardiac fibroblasts; conditions: by 4 weeks, without or with A83-01
# Protocol: (§2) Hearts or skinned tails from adult C57BL6 mice were cut into small pieces with ˜1 mm diameter. The biopsies were seeded on a 10 cm culture dish and incubated with 10 mL of growth medium (DMEM/Hi glucose (Hyclone), 10% FBS (Gemini:), 1.1% Penicillin-Streptomycin (Gibco) and 1.1% GlutaMAX supplement (Gibco)) at 37° C. with 5% CO2. TTFs migrated out of the biopsies after 3 days. The media were changed every other day. Once the TTFs have reached a 70-80% confluence, the cells were harvested and stored for future use.
# (§3) Fibroblasts were plated on tissue culture dishes pre-coated with SureCoat (Cellutron) at a density of ˜40 cells/mm^2 before transduction. The fibroblast growth medium was replaced with freshly made viral mixture containing polybrene (Sigma). Twenty-four hours later, fibroblasts were infected again with viral mixture containing polybrene. Twenty fours later, the viral medium was replaced with induction medium, composed of DMEM/199 (4:1) (Gibco), 10% FBS (Gemini), 5% horse serum(Gemini), antibiotics (Gibco), 1× non-essential amino acids (Gibco), 1× essential amino acids (Gibco), 1× B-27 (Gibco), 1× insulin-selenium-transferin (Gibco), 1× vitamin mixture (Gibco), and 1× sodium pyruvate (Gibco). Medium was changed every two-three days until cells were examined.
# (§4) Cells were fixed in 2% PFA for 15 min on ice then washed with DPBS (Gibco) three times at RT. […]
# [3] = test system: MEFs; assay: Intracellular staining for flow cytometry (cTnT, Myc) in retrovirus-infected MEFs; conditions: for cTnThigh fraction: day 7
# Protocol: C57BL6 pregnant mice at E13 were order from Charles River's laboratory. Embryos at E14.5 were harvested and their internal organs and head were removed. The body below the liver was minced using blade to fine pieces. Minced embryos were incubated with 2 ml of 0.25% trypsinIl mM EDTA, Phenol Red (Gibco) for 40 mins at 37° C. with 5% CO2. Cells were suspended in 25 ml of growth medium (DMEM/Hi glucose (Hyclone) 10% FBS (Gemini), 1.1% Penicillin-Streptomycin (Gibco) and 1.1% GlutaMAX supplement (Gibco)) and then plated on a 15 cm dish. In 24 hours, the media was aspirated and new 25 ml of growth medium was added. In 72 hours, MEFs were harvested and stored for future use.
# as §3
# Adherent fibroblasts were washed with DPBS (Gibco). Cells were detached from culture dish by treatment with 0.25% Trypsin/EDTA (Gibco) for 3 min at 37° C. Cells were then washed with 4 ml of 5% FBS (Gemini) in DPBS filtered through a cell strainer and centrifuge at 1200 rpm×6 mins. Cells were washed with 500 ul of 1% BSA in DPBS. Cells were fixed with BD Cytofix/Cytoperm™ solution in 0.2 ml/1 million cells in 1.5 ml eppendorf tube for 20 min on ice. Cells were washed with 1 ml of BD perm/wash buffer and Centrifuged for 6 min at 1200 rpm. The supernatant was discarded; cells were washed again with 1 ml of BD Perm/wash buffer and left overnight at 4° C. The next day, Cells were centrifuged for 6 min at 1200 rpm, the supernatant discarded and 100 μl of Blocking buffer made with 5% goat, donkey serum (Sigma: G9023 and D9663) in Perm/wash buffer was added to the cells and incubated for 30 min at RT. A primary antibody: Mouse Troponin T (cTnT) antibody (Thermo Scientific, ms-295-p, 1:200), mouse anti-C-Myc antibody (BD Pharmingen, 551102, 1:200) in 100 μl BD Perm/Wash buffer was added to the cells and incubated for 1 hr at RT. One ml cold BD Perm/wash buffer was added to the cells and centrifuged for 6 min at 1200 rpm. […] Cells were re-suspended in 300 ul of 1% BSA/DPBS and then analyzed using FACS Caliber (BD Sciences) and FlowJo software.
# [4] = test system: MEFs; assay: Immunocytochemistry for cTnT and α-actinin in infected MEFs; conditions: day 14, without or with A83-01
# Protocol: as §3
# Cells were fixed in 2% PFA for 15 min on ice then washed with DPBS (Gibco) three times at RT. The cells were permeabilized in 0.5% Triton X-100 (made in PBS) for 20 min at RT. After washing the cells with DPBS (Gibco), cells were incubated with the primary antibody against α-actinin (Sigma A7811, 1:300), Connexin 43 (Sigma, C6219, 1:500), Troponin T (Thermo Scientific MS-245-P, 1:500), α-SMA (Santa Cruz Biotechnology, SC-32251, 1:800), Myl2 (Proteintech, 10906-1-AP, 1:200), or Myl7 (Proteintech, 17283-1-AP, 1:200) in 10% FBS(Gemini) in DPBS for 1 hour at RT. Cells were wash with DPBS three times, 5 min each. Cell were incubated with the secondary antibody (Alexa Fluor 555 Molecular Probes A21422, 1:1000) and Hoechest (Molecular Probes 33342, 1:5000) for 30 mins at RT.
# [5] = test system: MEFs; assay: Counting of spontaneously beating cells in infected MEFs
# Protocol: as §3
# Cells in 60 mm dishes were examined under an EVOS® FL Color imaging system (Life Technologies) at 25° C. Beating cells were counted at a field with an area of 0.89 mm^2. Ten to fifteen fields in each dish were randomly chosen.
# [6] = test system: adult cardiac fibroblasts (ACFs); assay: qPCR of cardiac genes in adult cardiac fibroblasts; conditions: infected ACFs treated with A83-01 for 4 weeks
# Protocol: as §2, §1
# [7] = test system: adult tail-tip fibroblasts (ATTFs); assay: Immunocytochemistry for cTnT and α-actinin in adult tail-tip fibroblasts; conditions: GHMT2m-infected ATTFs; DMSO or A83-01 for 2 weeks
# Protocol: as §2, §3, §4
compound,measurement,setting,value
Cc1cccc(-c2nn(C(=S)Nc3ccccc3)cc2-c2ccnc3ccccc23)n1 [A83-01],program of cardiomyocyte gene expression,[1],enhanced
same,ACFs positive for cTnT,[2]; GHMT2m-infected ACFs,approximately 18%
same,ACFs positive for cTnT,[2]; GHMT-infected ACFs,approximately 10%
same,cTnThigh fraction,"[3]; GHMT2m-infected MEFs, alone or treated with A83-01 (0.5 μM, day 3 to day 7)",approximately 45.6%
same,cTnThigh fraction,"[3]; GHMT-infected MEFs, alone or treated with TGF-β1 (10 ng/ml) or A83-01 (0.5 μM, day 3 to day 7)",approximately 30.7%
same,induction of cTnT+ cells by the small molecule alone,"[3]; MEFs without reprogramming factors, flow cytometry",did not induce cTnT+ cells
same,proportion of cTnT+ cells (immunostaining),[4]; GHMT2m-cultures of MEFs,~67%
same,proportion of α-actinin+ cells (immunostaining),[4]; GHMT2m-cultures of MEFs,~64%
same,proportion of cTnT+ cells (immunostaining),[4]; GHMT-cultures of MEFs,approximately 58%
same,proportion of α-actinin+ cells (immunostaining),[4]; GHMT-cultures of MEFs,approximately 57%
same,increase of the number of beating cells,"[5]; GHMT2m-infected MEFs treated with A83-01, by day 8",8 fold
same,spontaneously contracting cells per cm^2,"[5]; GHMT-infected MEFs treated with A83-01 (0.5 μM), by 4 weeks",about 4400 cells per cm^2
same,time by which cells started to beat,"[5]; MEFs, GHMT2m alone, or GHMT-infected cultures treated with Y-27632 (30 μM) or A83-01 (0.5 μM)",≤ 11 days
same,"expression of other cardiac genes, Actc1, Myh6 and Ryr2",[6],enhanced
same,adult TTFs positive for cTnT and α-actinin,[7],approximately 30%
